According to patent US4294845A, “1,3-Benzodioxin derivatives” (priority 1978, dated 1981):

Key:
[1] = system: levels of triglycerides, cholesterol and total lipids; experiment: Hypolipemiant activity: plasma lipid levels in rats on a saccharose and cholesterol-rich regime, 10 days treatment; assay type: in vivo, male rats of the Sprague Dawley S.P.F. strain; conditions: esophague tube, vs untreated controls
Protocol: This test was effected on groups of 8 male rats of the Sprague Dawley S.P.F. strain weighing about 200 g and the animals received a regime containing 50% of saccharose and which was rich in cholesterol (1%). The rats were treated over 10 days with the test products which were administered through an esophague tube as a suspension in water containing carboxymethylcellulose. The animals were killed 16 hours after the last administration of the test product by an abdominal puncture and from the blood sample with sodium heparinate, the levels of triglycerides, cholesterol and total lipids were determined by the following methods.
The triglyceride level was determined by the semi-automatic technique of Kessler et al [Automation in Analytical Chemistry, 1965, p. 341] modified by Claude et al [Ann. Biol. Clin., Vol. 26 3-4 (1968), p. 451]. The cholesterol levels were determined by the technique of Levine [Symposium Technicon, Vol. I. (1967), p. 25] adapted to auto-analyzer system I. The nephelometric level of total lipids was determined semi-automatically by the method of Girard et al [Symposium Technicon, 1970]. The variations expressed in percentages of the level of triglycerides, cholesterol and total lipids after administration of the various dosage of the test products in the treated animals as compared to the untreated controls and the results are reported in Table I.

[2] = Acute toxicity in mice (intraperitoneal, DL50); assay type: in vivo; conditions: mouse, in vivo, ip, observed for one week
Protocol: (§1) The acute toxicity was determined on groups of 5 mice weighing about 18 to 22 g and the test products were intraperitoneally administered in suspension in an aqueous carboxymethylcellulose.

mice = experiment: Acute toxicity in mice (intraperitoneal, DL50); assay type: in vivo; conditions: observed for one week, 10080 min
Protocol: as §1

| SMILES | % Variation of levels, Cholesterol ([1]; 2 mg/kg/day) [%] | % Variation of levels, Total Lipids ([1]; 2 mg/kg/day) [%] | % Variation of levels, Triglycerides ([1]; 2 mg/kg/day) [%] | LD50 at 168 h [2] [mg/kg] | % Variation of levels, Cholesterol ([1]; 1 mg/kg/day) [%] | % Variation of levels, Total Lipids ([1]; 1 mg/kg/day) [%] | % Variation of levels, Triglycerides ([1]; 1 mg/kg/day) [%] | % Variation of levels, Cholesterol ([1]; 5 mg/kg/day) [%] | % Variation of levels, Total Lipids ([1]; 5 mg/kg/day) [%] | % Variation of levels, Triglycerides ([1]; 5 mg/kg/day) [%] | DL50 (mice) [mg/kg] |
| --- | --- | --- | --- | --- | --- | --- | --- | --- | --- | --- | --- |
| CC1(c2ccccc2)OC(C(=O)O)Oc2ccc(Cl)cc21 (single isomer, unassigned) [17 Isomer A] | -43 | -47 | -57 | ~200 | – | – | – | – | – | – | – |
| COC(=O)C1Oc2ccc(Cl)cc2C(C)(c2cccc(Cl)c2)O1 (single isomer, unassigned) [20 Isomer A] | – | – | – | ≤ 1000 | -36 | -32 | -13 | – | – | – | – |
| CCOC(=O)C1Oc2ccc(Cl)cc2C(C)(c2ccccc2)O1 (single isomer, unassigned) [16 Isomer A] | -17 | -25 | -32 | ~800 | – | – | – | – | – | – | – |
| CC1(c2ccccc2)OC(C(=O)O)Oc2ccc(Cl)cc21 (single isomer, unassigned) [18 Isomer A 1 form] | -47 | -53 | -53 | ~250 | – | – | – | – | – | – | – |
| CC1(c2ccccc2)OC(C(=O)O)Oc2ccc(Cl)cc21 (racemic) [Example 1, 6-chloro-4-methyl-4-phenyl-[4H]-1,3-benzodioxin-2-carboxylic acid] | – | – | – | 130 | – | – | – | -22 | -26 | -11 | – |
| CC1(c2cccc(Cl)c2)OC(C(=O)O)Oc2ccc(Cl)cc21 (single isomer, unassigned) [21 Isomer A] | – | – | – | ~150 | -11 | -25 | -62 | – | – | – | – |
| CC1(c2ccccc2)OC(C(=O)O)Oc2ccc(Cl)cc21 (racemic) [Example 3, 6-chloro-4-methyl-4-phenyl-[4H]-1,3-benzodioxin-2-carboxylic acid] | -36 | -38 | -12 | – | – | – | – | – | – | – | 150 |
| CN(C)CCOC(=O)C1Oc2ccc(Cl)cc2C(C)(c2ccccc2)O1 (single isomer, unassigned) [41 Isomer A] | – | – | – | ~200 | – | – | – | -40 | -49 | -43 | – |
